Experiments:
[1] = test system: CrPV IRES-dependent translation; experiment: CrPV assay, IRES-dependent translation (Renilla luciferase); assay type: cell-based; settings: 3 hours treatment
Description: FIG. 12—CrPV assay—Natural molecule targets eIF4A.
By using a well characterised luciferase based reporter assay it was further determined that this class of molecule functions as a protein synthesis inhibitor via targeting the helicase eIF4A.

[2] = test system: breast cancer cells MDA-MB-231; experiment: Cell proliferation, MDA-MB-231; assay type: cell-based; settings: 96 hours, Formula II only
Experimental: Growth of MDA-MB-231 cell lines were slowed by the treatment with a compound of Formula II. Experiment represents 6 biological repetitions, Error=S.E.M.
(§1) Prior to treatment cells were cultured to an appropriate confluency in 96 well tissue culture plates (Fisher). Cells remained either supplemented with fresh media or treated with fresh media containing active or an equivalent volume of DMSO (vehicle control). Where used, Cisplatin™ was diluted to a stock concentration in Dimethylformamide (DMF), then handled as per the manufacturer's instructions. To determine relative cell viability, reagents WST-1 (Roche) or MTT (Sigma) were used as per the manufacturer's instructions and absorbance at 450 nm measured using a Victor plate reader (Perkin Elmer).

[3] = test system: SKOV3 ovarian cancer cells; experiment: Cell proliferation, SKOV3; assay type: cell-based; settings: 96 hours
Experimental: Growth of SKOV3 cell lines were slowed by the treatment with a compound of Formula II at higher doses. Experiment represents 6 biological repetitions, Error=S.E.M.
Cisplatin™ resistant SKOV-3 ovarian cancer cells were sensitised to treatment with a compound of Formula II in combination with 2.5 μM Cisplatin™ (p=0.003) (right hand bar in the figure), no effect is observed from treatment with equivalent levels of a compound of Formula II alone (left hand bar in the figure) or Cisplatin™ alone.
as §1

[4] = test system: A549 lung carcinoma cells; experiment: Cell proliferation, A549 (WST-1 / MTT); assay type: cell-based
Experimental: Cisplatin™ resistant A549 lung cancer cells were sensitised to treatment with a compound of Formula II in combination with 1 μM Cisplatin™—a complete kill is achieved at higher doses of a compound of Formula II.
Cells were treated with a range of doses of active for either 48 or 96 hrs. Each data point is representaive of at least 4 biological repetitions.
Cells were treated with either 2 μM Cisplatin™ alone, c. 1 μg active alone or c. 1 μg active in combination with 2 μM Cisplatin™. A WST-1 cell proliferation assay was performed 96 hrs after treatment. Experiment represents 4 independent biological repetitions.
A WST-1 cell proliferation assay was performed 72 hrs after treatment. Experiment represents 4 independent biological repetitions.
Cells were treated with either 2 μM or 10 μM Cisplatin™ alone, or 10 μg synthetic molecule Formula II in combination with 2 μM Cisplatin™. A WST-1 cell proliferation assay was performed 72 hrs after treatment. Experiment represents 4 independent biological repetitions. A 5-fold increase in the efficacy of Cisplatin™ is observed when treated in combination with the synthetic Formula II.
Cells were treated with either 2 μM, 5 μM or 10 μM Cisplatin™ alone, 50 μg synthetic acetyl derivative molecule or 30 μg in combination with 2 μM Cisplatin™. A WST-1 cell proliferation assay was performed 72 hrs after treatment. Experiment represents four independent biological repetitions. No effect was detected after treatment with 50 μg synthetic acetyl derivative, however an 8-fold increase in the efficacy of Cisplatin™ is observed when treated in combination with 30 μg synthetic acetyl derivative and […] Cisplatin™.
FIG. 11—Natural molecule plus cisplatin compared to Hippuristanol plus cisplatin. […] The ratio between anti-proliferative activity to chemo sensitizing activity is also equivalent.
FIG. 13—Dose curves of compounds 46, 99 and 123. […] Cells were treated with a range of doses of active for 96 hrs. Each data point is representative of at least 4 biological repetitions and error=s.e.m).
FIG. 14—Cisplatin™ combination experiments—Compounds 46, 99 and 123. […] Cells were treated with a range of doses of active in combination with a range of doses of Cisplatin™ for 96 hrs. Each data point is representative of at least 4 biological repetitions and error=s.e.m).
as §1

[5] = test system: beta secretases (BACE) 5′UTR; experiment: 5′UTR firefly luciferase reporter assay, BACE; assay type: cell-based, human; settings: Neuroblastoma cells; FIG. 3d
Experimental: The 5′UTRs of genes which negatively associate with the progression of Alzheimer's disease—amyloid precursor protein (APP) and beta secretases (BACE) are all inhibited by treatment with a compound of Formula II, whereas the equivalent reporter levels of housekeeping genes actin and thioredoxin (TXN) are not inhibited. […] Neuroblastoma cells were transfected 24 hours prior to treatment with a compound of Formula II. After treatment, cells were prepared as described in the materials and methods. Each experiment represents between 6 and 8 biological repetitions.
Experiments conducted using Firefly luciferase reporter plasmids containing the 5′ untranslated regions (UTRs) of the genes amyloid precursor protein (APP), thioredoxin (TXN) were conducted with reagents and materials described by Bottley et al, 2010. Experiments conducted using Firefly luciferase reporter plasmids containing the 5′ UTRs of the genes EGFR, BACE1 and Actin were conducted with reagents and materials described by Webb, 2012 (http://etheses.nottingham.ac.uk/2724/). […]
Cells were transfected using FuGene 6 (Roche) following the manufacturer's instructions. The activities of firefly and renilla luciferase in lysates prepared from transfected cells were measured using a commercially available Luciferase reporter assay system (Promega) and light emission was measured over a 10 sec interval using a TECAN luminometer. […]

CC/C=C\C/C=C\C/C=C\CCCCCCCC(=O)OC[C@H](COC1OC(CO)C(O)C(O)C1O)OC(=O)CCCCCCC/C=C\C/C=C\C/C=C\CC (stereo partly drawn) [Formula II, 1,2-dioctadecatienyl-3-O-β-D-galactosyl-sn-glycerol]
CrPV IRES-dependent translation (Renilla luciferase signal) [1]: but not CrPV IRES-dependent translation (Renilla luciferase signal), was inhibited
growth of MDA-MB-231 cells [2]: slowed
growth of SKOV3 cells ([3]; Formula II only, at higher doses): slowed
effect on SKOV-3 cells, compound alone ([3]; equivalent levels of Formula II alone, FIG. 4f): no effect
sensitisation of SKOV-3 cells to Cisplatin ([3]; in combination with 2.5 μM Cisplatin (p=0.003)): sensitised
increase in the efficacy of Cisplatin ([4]; 10 μg synthetic Formula II plus 2 μM Cisplatin, WST-1, 72 hrs, FIG. 9b): 5 fold
kill of A549 cells in combination with Cisplatin ([4]; 96 hours, plus 1 μM Cisplatin, higher doses of Formula II): complete kill
anti-proliferative activity on A549 cells ([4]; alone, FIG. 11): anti-proliferative
efficacy of Cisplatin on A549 cells in combination ([4]; c. 1 μg active plus 2 μM Cisplatin, WST-1, 96 hrs, FIG. 7): significant increase in the efficacy
sensitizing effect to Cisplatin on A549 cells ([4]; in combination with Cisplatin (2 μM), FIG. 11): equivalent to hippuristanol
growth of A549 cells ([4]; range of doses, 48 or 96 hrs, WST-1 and MTT, compound purified from natural source, FIG. 6): inhibits the growth
A549 cell growth, synthetic molecule ([4]; synthetic Formula II, WST-1, 72 hrs, FIG. 9a): inhibited by Formula II in a dose dependent manner
firefly luciferase reporter activity, BACE 5′UTR [5]: inhibited

From US11248016B2, “Glycolipids and pharmaceutical compositions thereof for use in therapy” (THE UNIVERSITY OF NOTTINGHAM, priority 2014, dated 2022)
